Source: patent publication US7429396B2, “Antifungal composition, its fungicidal effect on pathogenic dermatophytes, and process for inhibiting growth of fungi” (Bio-Botanica, Inc., priority 2003, dated 2008)

What was measured:
S. aureus ATCC 29213 = assay: Agar Dilution susceptibility method (Example 5); assay type: cell-based, Staphylococcus aureus
Description: (§1) The Agar Dilution susceptibility method was used to test the effectiveness of the antimicrobial composition of Example 1. The organisms used were S. aureus ATCC 29213, E. coli ATCC 25922, S. typhimurium ATCC 14028, K. pneumoniae ATCC 10031, P. aeruginosa ATCC 27853, C. albicans ATCC 10231, and M. smegmatis ATCC 14468. The organisms were maintained on Tryptic Soy Agar (TSA) slants. For each week, the organisms were cultured in 10 ml of Tryptic Soy Broth (TSB). After incubation at 37° C. for 17 hours (48 hours for M. smegmatis), the organism suspensions were diluted with 10 ml of sterile saline as shown in Table 4. The mold Aspergillus niger was sustained on a Sabouraud Dextrose Agar slant. The sample was then cultured in 10 ml of Tryptic Soy Broth and incubated for 7 days at 22° C. The mold was then diluted in 0.1% Tween 80 in saline. The diluted bacteria and yeast organisms were then inoculated onto the prepared sample plates with a 1 μl loop. The mold Aspergillus niger was added to prepared sample tubes with a 100 μl pipette.
(§2) Phenyloxyethanol (PE), phenylethyl alcohol (PEA) and methyl/propylparabens (MP) in a ratio of 5:4 were initially screened at their commonly recommended effective concentrations of 0.3% v/v (3 μl/ml); 1% v/v (10 μl/ml); and 0.18% w/v (1 mg methyl and 0.8 mg propylparaben/ml), respectively. The antimicrobial agent was used at an initial concentration of 0.15% v/v (1.5 μl/ml).
The sample plates for the bacteria and yeast were prepared as follows: • Prepare 10 ml tubes of TSA and allow to cool to 50° C., • Add the calculated amount of the preservative or antimicrobial agent to 100 μl dimethylsulfoxide (DMSO) to achieve the specified concentration per ml TSA when 100 μl of the DMSO solution are added to a test tube containing 10 ml of TSA, • Vortex to homogenize the mixture in TSA, • Pour TSA and the preservative or antimicrobial agent into a properly labeled Petri dish, • Allow to cool overnight at room temperature. […]
The results for the bacteria and yeast were scored in relation to the growth present on the positive control plate. […]

[1] = system: S. typhimurium ATCC 14028; assay: Agar Dilution susceptibility method (Example 5); assay type: cell-based, Salmonella typhimurium
Description: as §1, §2
The sample plates for the bacteria and yeast were prepared as follows: • Prepare 10 ml tubes of TSA and allow to cool to 50° C., • Add the calculated amount of the preservative or antimicrobial agent to 100 μl dimethylsulfoxide (DMSO) to achieve the specified concentration per ml TSA when 100 μl of the DMSO solution are added to a test tube containing 10 ml of TSA, • Vortex to homogenize the mixture in TSA, • Pour TSA and the preservative or antimicrobial agent into a properly labeled Petri dish, • Allow to cool overnight at room temperature.
The prepared sample plates were divided into seven sections and the plates labeled according to the preservative or antimicrobial agent. Each section was labeled according to the microorganism to be applied to each section. The diluted organism suspensions were inoculated onto their appropriate section with a 1 μl loop, streaking radially from the center to the outer edge of the plate. A positive control plate was prepared without a preservative or antimicrobial agent of Example 1. The plates were then incubated at 37° C. for 48 hours, recording the results at 24 and 48 hours.
Growth (G) was noted when there was full growth visible and the organism was not affected. […]
In this example and the tables, the amount of the antimicrobial agent is expressed in terms of the volume of antimicrobial sample. […]

[2] = system: Aspergillus niger ATCC 16404; assay: Macro-dilution broth susceptibility method (Example 6); assay type: cell-based
Description: The mold Aspergillus niger ATCC 16404 was selected for the antifungal testing and maintained on Sabouraud Dextrose Agar. Aspergillus niger is a mold that commonly causes opportunistic infections in humans. Spores are prevalent in soil and on decaying organic matter. Aspergillus niger is also a common cause of contamination in products. The organism was cultured in 10 ml of Tryptic Soy Broth for 7 days at 22° C. After incubation, 1 ml of mold culture was added to 10 ml of 0.1% Tween 80 solution in sterile saline to achieve a spore concentration of 0.5 McFarland (1×10^8 spores/ml). This concentration was determined by visual comparison to a 0.5 McFarland standard. […]
The final concentration of mold spores in each sample was 1×10^4-1×10^5 spores/ml. The prepared tubes of TSB were incubated at 37° C. for 5 days, and the results recorded at 3 and 5 days. […]
The results were scored in relation to the growth present in the negative control tube. […] Partial activity (P) was recorded when the sample tube of TSB was less turbid than the control tube, and now growth (I) was recorded when there was total inhibition and the broth in the tube appeared clear. When a result of (I) was scored, the MIC was established by performing the appropriate dilutions.

Minimum Inhibitory Concentration (MIC) (sample/ml of agar or broth) (S. aureus ATCC 29213): 10.0 μl/ml | Minimum Inhibitory Concentration (MIC) (sample/ml of agar or broth) [1]: 5.0 μl/ml | Minimum Inhibitory Concentration (MIC) ([2]; macro-dilution broth, Example 6): 2.5 μl/ml
Compound: OCCc1ccccc1 [Phenylethyl Alcohol]
effect on S. aureus (S. aureus ATCC 29213; 0.3 wt %): no effect | growth score (S. aureus ATCC 29213; 6.0 μl/ml): I | growth score ([1]; 3.0 μl/ml): I | growth score ([1]; 5.0 μl/ml): I | growth score ([1]; 6.0 μl/ml): I | growth score ([2]; 2.5 μl/ml): I
